Article PMC12858405, “Ideal efficacy photoswitching for chromocontrol of TRPC4/5 channel functions in live tissues” (Nature Chemical Biology, 2026)

Biological target: T1, TRPC5-V579I-SYFP2 (Homo sapiens, UniProt Q9UL62, V579I)
T1 construct: expressed in transfected cells; host or cells: HEK 293 (ATCC CRL 1573), transiently transfected (jetPRIME)
T1 sequence (Q9UL62 1-973 V579I): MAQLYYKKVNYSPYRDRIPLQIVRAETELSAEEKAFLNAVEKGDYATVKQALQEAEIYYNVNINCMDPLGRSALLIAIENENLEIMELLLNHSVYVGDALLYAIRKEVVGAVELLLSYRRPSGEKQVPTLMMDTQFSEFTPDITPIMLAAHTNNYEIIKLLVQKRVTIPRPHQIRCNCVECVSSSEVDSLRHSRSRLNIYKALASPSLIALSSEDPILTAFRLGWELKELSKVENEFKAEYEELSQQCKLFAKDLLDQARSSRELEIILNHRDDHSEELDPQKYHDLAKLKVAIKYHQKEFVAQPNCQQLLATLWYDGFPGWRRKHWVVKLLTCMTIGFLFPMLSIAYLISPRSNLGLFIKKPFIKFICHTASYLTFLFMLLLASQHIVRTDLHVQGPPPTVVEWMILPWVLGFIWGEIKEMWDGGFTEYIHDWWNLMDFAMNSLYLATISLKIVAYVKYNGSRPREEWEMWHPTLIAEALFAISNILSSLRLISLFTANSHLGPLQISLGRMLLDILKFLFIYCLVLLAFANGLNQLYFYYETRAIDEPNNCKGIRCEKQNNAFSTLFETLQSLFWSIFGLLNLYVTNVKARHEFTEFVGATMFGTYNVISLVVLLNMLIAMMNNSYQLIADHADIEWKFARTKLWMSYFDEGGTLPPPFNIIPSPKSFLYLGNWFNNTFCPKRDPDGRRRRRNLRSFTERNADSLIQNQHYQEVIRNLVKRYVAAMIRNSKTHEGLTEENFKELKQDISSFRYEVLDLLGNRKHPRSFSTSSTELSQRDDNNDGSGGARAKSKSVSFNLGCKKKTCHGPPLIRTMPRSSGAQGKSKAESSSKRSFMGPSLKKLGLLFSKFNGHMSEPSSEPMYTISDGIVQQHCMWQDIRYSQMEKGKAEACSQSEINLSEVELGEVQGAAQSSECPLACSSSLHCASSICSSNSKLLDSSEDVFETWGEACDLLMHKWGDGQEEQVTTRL
Test: Fura-2 [Ca2+]i recordings, HEK 293 transiently expressing TRPC5-V579I-SYFP2
Assay type: cell-based
Conditions: 10-1000 nM; compound plate illuminated at 380 nm; EA 100 nM as maximum
Excerpt: Müller, Niemeyer, et al., Schaefer & Thorn-Seshold 2025: Ideal Efficacy Photoswitching of TRPC4/5 in Tissue […]
1.4.3 Note on TRPC4 / TRPC5 Sequence Alignment
The key contact residues of interest in the ligand binding site are highly conserved between TRPC4 and TRPC5. The relevant sequences in the site are: […]
1.4.4 Differences and selectivity between TRPC5 and TRPC4?
AM237 activates TRPC5 but inhibits EA mediated activation of TRPC4; Pico145 inhibits both TRPC4 and TRPC5. Thus, somewhat naively, it could be argued that it is the para substituent here which affects both the efficacy mode and the selectivity for TRPC4 and/or TRPC5.
Intriguingly, Z-AzPico activates TRPC4 and TRPC5 with low nanomolar potency whereas Z-AzHC only activates TRPC5 but not TRPC4. Therefore, the meta substituent is now responsible for the selectivity in this case. The cryo-EM structures of Pico145 and HC-070 in complex with TRPC5 indicated the same binding site but the southern phenyl ring bearing the OCF3/Cl group is flipped and pointing in opposite directions.
Z isomers, i.e. Z-buried vs. E-projected. Additionally, both E-AzPico and E-AzHC inhibit EA […]
Intracellular calcium ([Ca2+]i) was measured using the ratiometric Ca2+ dye Fura-2. […]

| SMILES | Effect on [Ca2+]i, TRPC5V579I |
| --- | --- |
| Cn1c(=O)n(CCCO)c(=O)c2c1nc(Oc1ccc(Cl)c(OC(F)(F)F)c1)n2Cc1ccc(Cl)cc1 [AM237, reference compound] | partial agonists |
| Cn1c(=O)n(CCCO)c(=O)c2c1nc(Oc1ccc(/N=N\c3ccccc3)c(Cl)c1)n2Cc1ccc(Cl)cc1 [Z*-AzHC] | partial agonists |
